# In patent publication US8202856B2 (Merck Serono SA, priority 2007, dated 2012):
# Counter-ions that a name gives are not always drawn.
# How the values were obtained:
# S1P3 receptor = S1P3 receptor (Homo sapiens, UniProt Q99500); test: 35S-GTPγS binding, membranes from CHO cells expressing S1P3; format: biochemical; conditions: CHO cell membranes expressing S1P3
# Protocol: Receptor binding assay: Membranes were prepared from CHO cells expressing S1P1 or S1P3 for use in ligand and 35S-GTPTS binding studies. Cells were suspended in 50 mM TRIS, pH 7.4, 2 mM EDTA, 250 mM Sucrose (buffer A) and 1× Complete protease inhibitor cocktail (Roche), and disrupted at 4° C. by nitrogen decompression using a cell disruption bomb (Parr Instrument). Following centrifugation at 1000 RPM for 10 min at 4° C., the supernatant was suspended in buffer A and centrifuged again at 19000 RPM for 60 min at 4° C. The pellet was then suspended in 10 mM HEPES, pH 7.4, 1 mM EDTA, 250 mM Sucrose (Buffer B), and 1× Complete EDTA-free protease inhibitor cocktail and homogenized using a potter. Membranes were flash frozen in liquid nitrogen and stored at −80° C. [33P]sphingosine 1-phosphate (3000 Ci/mmol; American Radiolabeled Chemicals, Inc.) was added to test compounds in DMSO. Membranes and WGA SPA beads (GE Healthcare) were added to give a final volume of 100 μl in 96-well plates with assay concentrations of […] [33P]sphingosine 1-phosphate (respectively for S1P1 or S1P3), 50 mM HEPES, pH 7.5, 5 mM MgCl2, 100 mM NaCl, 0.4% fatty acid-free BSA, 1-5 μg/well of proteins and 100 μg/well of WGA SPA beads. Binding was performed for 60 min at room temperature on a shaker and bound radioactivity was measured on a PerkinElmer 1450 MicroBeta counter. Specific binding was calculated by subtracting remaining radioactivity in the presence of 1000-fold excess of unlabeled S1P. Binding data were analyzed using the GraphPad Prism program.
# Measurements of ^35S-GTPγS Binding: Membranes (1 to 10 μg protein) prepared as described above, were incubated in 96-well Scintiplates (PerkinElmer) with test compounds diluted in DMSO, in 180 μl of 20 mM HEPES, pH 7.4, 10 mM MgCl2, 2 μg/well Saponin, 0.2% fatty acid free BSA (Assay buffer), 140 mM NaCl and 1.7 μM GDP. The assay was initiated with the addition of 20 μl of 1.5 nM [35S]-GTPγS (1100 Ci/mmol; GE Healthcare) in assay buffer. After 60 min incubation at 30° C. on a shaker, plates were centrifuged for 10 min at 2000 RPM. Supernatant was discarded and membrane bound radioactivity was measured on a PerkinElmer 1450 MicroBeta counter. Triplicate samples were averaged and expressed as response relative to S1P activation in absence of compound (n=2).
# S1P1 receptor = S1P1 receptor (Homo sapiens, UniProt P21453); test: 35S-GTPγS binding, membranes from CHO cells expressing S1P1; format: biochemical; conditions: CHO cell membranes expressing S1P1
# Procedure, shortened: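 Membranes (1–10 μg) from CHO cells expressing the receptor were incubated with compound in 20 mM HEPES pH 7.4, 10 mM MgCl2, 140 mM NaCl, 1.7 μM GDP, saponin and 0.2% BSA. [35S]GTPγS (added at 1.5 nM) was then bound for 60 min at 30 °C. Membrane-bound radioactivity, averaged over triplicates, is expressed relative to S1P activation (n=2).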
# Sequence of S1P1 receptor (P21453 whole entry): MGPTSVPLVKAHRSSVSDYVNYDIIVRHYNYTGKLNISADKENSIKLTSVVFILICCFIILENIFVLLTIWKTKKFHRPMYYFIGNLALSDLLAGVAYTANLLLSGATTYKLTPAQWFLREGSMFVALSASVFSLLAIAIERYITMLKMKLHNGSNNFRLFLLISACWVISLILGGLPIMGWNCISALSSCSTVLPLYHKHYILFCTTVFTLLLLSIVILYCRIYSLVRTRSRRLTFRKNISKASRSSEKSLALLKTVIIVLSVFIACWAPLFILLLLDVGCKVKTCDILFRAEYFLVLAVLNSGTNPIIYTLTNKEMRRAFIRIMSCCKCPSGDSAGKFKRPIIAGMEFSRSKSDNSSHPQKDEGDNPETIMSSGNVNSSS
# Sequence of S1P3 receptor (Q99500 whole entry): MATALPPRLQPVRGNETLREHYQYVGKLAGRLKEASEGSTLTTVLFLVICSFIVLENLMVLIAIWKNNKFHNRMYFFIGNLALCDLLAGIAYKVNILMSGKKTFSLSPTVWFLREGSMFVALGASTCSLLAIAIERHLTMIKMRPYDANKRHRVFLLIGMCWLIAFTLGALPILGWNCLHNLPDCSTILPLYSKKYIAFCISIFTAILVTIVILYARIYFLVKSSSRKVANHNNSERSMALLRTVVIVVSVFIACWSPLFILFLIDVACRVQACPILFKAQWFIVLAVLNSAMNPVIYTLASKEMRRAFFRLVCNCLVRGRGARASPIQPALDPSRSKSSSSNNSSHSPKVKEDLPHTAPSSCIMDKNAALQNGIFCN
EC50 (S1P3 receptor),EC50 (S1P1 receptor),Compound
1780 nM,7 nM,"Fc1ccc(F)c(-c2noc(-c3nnn(-c4ccccc4F)c3-c3ccncc3)n2)c1 [Example 31, 4-[4-[3-(2,5-Difluorophenyl)-1,2,4-oxadiazole-5-yl]-1-(2-fluorophenyl)-1H-1,2,3-triazole-5-yl]pyridine]"
1200 nM,20 nM,"Fc1ccccc1-c1noc(-c2nnn(-c3ccccc3F)c2-c2ccncc2)n1 [Example 32, 4-{1-(2-Fluorophenyl)-4-[3-(2-fluorophenyl)-1,2,4-oxadiazole-5-yl]-1H-1,2,3-triazole-5-yl}pyridine]"
> 20000 nM,501 nM,"O=C(O)c1ccc(-c2noc(-c3nnn(-c4ccccc4F)c3-c3ccccc3)n2)c(F)c1 [Example 33, 3-Fluoro-4-{5-[1-(2-fluorophenyl)-5-phenyl-1H-1,2,3-triazole-4-yl]-1,2,4-oxadiazole-3-yl}benzoic acid]"
> 30000 nM,1100 nM,"Cc1c(-c2nc(-c3ccccc3)no2)nnn1-c1ccccc1F [Example 34, 5-[1-(2-fluorophenyl)-5-methyl-1H-1,2,3-triazol-4-yl]-3-phenyl-1,2,4-oxadiazole]"
741 nM,92 nM,"Fc1ccc(F)c(-c2noc(-c3nnn(-c4ccccc4F)c3CN3CCOCC3)n2)c1 [Example 39, 4-{[4-[3-(2,5-difluorophenyl)-1,2,4-oxadiazol-5-yl]-1-(2-fluorophenyl)-1H-1,2,3-triazol-5-yl]methyl}morpholine]"
> 20000 nM,120 nM,"COc1ccccc1-c1noc(-c2nnn(-c3ccccc3F)c2-c2ccncc2)n1 [Example 40, 4-{1-(2-fluorophenyl)-4-[3-(2-methoxyphenyl)-1,2,4-oxadiazol-5-yl]-1H-1,2,3-triazol-5-yl}pyridine]"
> 20000 nM,160 nM,"Fc1ccccc1-n1nnc(-c2nc(-c3ccncc3)no2)c1-c1ccncc1 [Example 41, 4-[1-(2-fluorophenyl)-4-(3-pyridin-4-yl-1,2,4-oxadiazol-5-yl)-1H-1,2,3-triazol-5-yl]pyridine]"
> 20000 nM,516 nM,"COCCc1c(-c2nc(-c3cccnc3)no2)nnn1-c1ccccc1F [Example 46, 3-{5-[1-(2-fluorophenyl)-5-(2-methoxyethyl)-1H-1,2,3-triazol-4-yl]-1,2,4-oxadiazol-3-yl}pyridine]"
> 20000 nM,672 nM,"COCc1c(-c2nc(-c3cccnc3)no2)nnn1-c1ccccc1F [Example 47, 3-{5-[1-(2-fluorophenyl)-5-(methoxymethyl)-1H-1,2,3-triazol-4-yl]-1,2,4-oxadiazol-3-yl}pyridine]"
10400 nM,127 nM,"COc1ccc(-c2noc(-c3nnn(-c4ccccc4F)c3-c3ccncc3)n2)cc1 [Example 48, 4-{1-(2-fluorophenyl)-4-[3-(4-methoxyphenyl)-1,2,4-oxadiazol-5-yl]-1H-1,2,3-triazol-5-yl}pyridine]"
13300 nM,119 nM,"COCCc1c(-c2nc(-c3ccccc3F)no2)nnn1-c1ccccc1F [Example 49, 3-(2-fluorophenyl)-5-[1-(2-fluorophenyl)-5-(2-methoxyethyl)-1H-1,2,3-triazol-4-yl]-1,2,4-oxadiazole]"
741 nM,10 nM,"COc1cccc(-c2noc(-c3nnn(-c4ccccc4F)c3-c3ccncc3)n2)c1 [Example 51, 4-{1-(2-fluorophenyl)-4-[3-(3-methoxyphenyl)-1,2,4-oxadiazol-5-yl]-1H-1,2,3-triazol-5-yl}pyridine]"
> 20000 nM,33 nM,"CS(=O)(=O)c1cccc(-c2noc(-c3nnn(-c4ccccc4F)c3-c3ccncc3)n2)c1 [Example 52, 4-(1-(2-fluorophenyl)-4-{3-[3-(methylsulfonyl)phenyl]-1,2,4-oxadiazol-5-yl}-1H-1,2,3-triazol-5-yl)pyridine]"
> 20000 nM,154 nM,"Fc1ccccc1-c1noc(-c2nnn(-c3ccccc3F)c2C2CCOCC2)n1 [Example 59, 3-(2-fluorophenyl)-5-[1-(2-fluorophenyl)-5-(tetrahydro-2H-pyran-4-yl)-1H-1,2,3-triazol-4-yl]-1,2,4-oxadiazole]"
> 20000 nM,182 nM,"Fc1ccccc1-n1nnc(-c2nc(-c3cccc(Cn4cncn4)c3)no2)c1-c1ccncc1 [Example 61, 4-(1-(2-fluorophenyl)-4-{3-[3-(1H-1,2,4-triazol-1-ylmethyl)phenyl]-1,2,4-oxadiazol-5-yl}-1H-1,2,3-triazol-5-yl)pyridine]"
> 20000 nM,46 nM,Fc1ccc(F)c(-c2noc(-c3nnn(-c4ccccc4F)c3C3CCOCC3)n2)c1 [Example 62]
> 20000 nM,119 nM,"COCc1c(-c2nc(-c3ccc4[nH]ccc4c3)no2)nnn1-c1ccccc1F [Example 65, 5-{5-[1-(2-fluorophenyl)-5-(methoxymethyl)-1H-1,2,3-triazol-4-yl]-1,2,4-oxadiazol-3-yl}-1H-indole]"
> 20000 nM,594 nM,"COCc1c(-c2nc(-c3cccc(S(C)(=O)=O)c3)no2)nnn1-c1ccccc1F [Example 68, 5-[1-(2-fluorophenyl)-5-(methoxymethyl)-1H-1,2,3-triazol-4-yl]-3-[3-(methylsulfonyl)phenyl]-1,2,4-oxadiazole]"
> 20000 nM,116 nM,"Fc1ccc(F)c(-c2noc(-c3nnn(-c4ccccc4F)c3C3CC3)n2)c1 [Example 69, 5-[5-cyclopropyl-1-(2-fluorophenyl)-1H-1,2,3-triazol-4-yl]-3-(2,5-difluorophenyl)-1,2,4-oxadiazole]"
33 nM,206 nM,"Fc1ccc(F)c(-c2noc(-c3nnn(-c4ccccc4F)c3C3CCCC3)n2)c1 [Example 77, 5-[5-cyclopentyl-1-(2-fluorophenyl)-1H-1,2,3-triazol-4-yl]-3-(2,5-difluorophenyl)-1,2,4-oxadiazole]"
2270 nM,38 nM,"NCc1ccc(-c2noc(-c3nnn(-c4ccccc4F)c3-c3ccncc3)n2)cc1 [Example 80, 1-(4-{5-[1-(2-fluorophenyl)-5-pyridin-4-yl-1H-1,2,3-triazol-4-yl]-1,2,4-oxadiazol-3-yl}phenyl)methanamine hydrochloride]"
242 nM,17 nM,"Fc1cccc(-c2noc(-c3nnn(-c4ccccc4F)c3-c3ccncc3)n2)c1 [Example 83, 4-{1-(2-fluorophenyl)-4-[3-(3-fluorophenyl)-1,2,4-oxadiazol-5-yl]-1H-1,2,3-triazol-5-yl}pyridine]"
> 20000 nM,98 nM,"COCc1c(-c2nc(-c3ccc4[nH]ncc4c3)no2)nnn1-c1ccccc1F [Example 87, 5-{5-[1-(2-fluorophenyl)-5-(methoxymethyl)-1H-1,2,3-triazol-4-yl]-1,2,4-oxadiazol-3-yl}-1H-indazole]"
> 20000 nM,92 nM,"Fc1ccc(F)c(-c2noc(-c3nnn(-c4ccccc4F)c3CN3CCCC3)n2)c1 [Example 92, 3-(2,5-difluorophenyl)-5-[1-(2-fluorophenyl)-5-(pyrrolidin-1-ylmethyl)-1H-1,2,3-triazol-4-yl]-1,2,4-oxadiazole]"
> 20000 nM,60 nM,"Fc1ccc(-c2noc(-c3nnn(-c4ccccc4F)c3-c3ccncc3)n2)cc1F [Example 97, 4-[4-[3-(3,4-difluorophenyl)-1,2,4-oxadiazol-5-yl]-1-(2-fluorophenyl)-1H-1,2,3-triazol-5-yl]pyridine]"
214 nM,9 nM,"Fc1ccccc1-n1nnc(-c2nc(-c3cccc(F)c3F)no2)c1-c1ccncc1 [Example 101, 4-[4-[3-(2,3-difluorophenyl)-1,2,4-oxadiazol-5-yl]-1-(2-fluorophenyl)-1H-1,2,3-triazol-5-yl]pyridine]"
149 nM,6 nM,"Fc1cc(F)cc(-c2noc(-c3nnn(-c4ccccc4F)c3-c3ccncc3)n2)c1 [Example 102, 4-[4-[3-(3,5-difluorophenyl)-1,2,4-oxadiazol-5-yl]-1-(2-fluorophenyl)-1H-1,2,3-triazol-5-yl]pyridine]"
